One experiment relates to EPO gene. Briefly: Cell-based luciferase reporter assay, pEPO HRE-Luc in HeLa cells. The conditions noted are these: Homo sapiens, compound 100 μM, 24 hrs, read-out: EPO fold induction over control. An excerpt:
(§1) A luciferase assay was used to determine the changes in transcription amount of EPO and VEGF genes in cells. For the luciferase assay, a human HIF I a gene was first cloned into an animal cell expression vector, pFlag-CMV, to prepare a pFlag-HIF1α vector, and a hypoxia responsible element (HRE) sequence of an EPO gene 3′-enhancer domain was then cloned upstream of luciferase and TK promoter genes to prepare a pEPO HRE-Luc expression vector. Also, the promoter and luciferase domains of the VEGF gene were cloned into a pGL3-basic vector to prepare a pVEGF-Luc expression vector. HeLa cells were seed-cultured in a medium dish to grow to about 70-80% density one day before the HeLa cells were to be used. The HeLa cells were transfected with each of the prepared pEPO HRE-Luc and pVEGF-Luc expression vectors together with the pFlag-HIF1α and the Renilla luciferase expression vector (Promega, Madison, Wis., USA), by using LipofectAMINE PLUS™ (Invitrogen Life Technologies, Carlsbad Calif.). Three hours after the transfection, the medium was exchanged with DMEM, 1% Penicillin-Streptomycin in 10% FBS supplemented with serum. At this time, cultured cells were treated with each of the compounds at the concentrations indicated. Then, the cells were cultured for 24 hrs in an incubator that was maintained under conditions of 37° C., 20% O2 and 5% CO2. After culturing, cells were washed twice with cold phosphate buffer saline (PBS). Luciferase activity of the cells was measured using the dual luciferase assay system (Promega, Madison, Wis., USA).
On the technique in general: Reporter assays use an easily measured gene product as a stand-in for the process of interest.

The next experiment concerns VEGF gene. Briefly: Cell-based luciferase reporter assay, pVEGF-Luc in HeLa cells. The note with it: Homo sapiens, compound 100 μM, 24 hrs.
Description: as §1

A further experiment deals with T1, HIF-PH2 (EGLN1) (Homo sapiens, UniProt Q9GZT9).
T1 construct: made in house; host or cells: E. coli
T1 sequence (Q9GZT9 whole entry, species assumed): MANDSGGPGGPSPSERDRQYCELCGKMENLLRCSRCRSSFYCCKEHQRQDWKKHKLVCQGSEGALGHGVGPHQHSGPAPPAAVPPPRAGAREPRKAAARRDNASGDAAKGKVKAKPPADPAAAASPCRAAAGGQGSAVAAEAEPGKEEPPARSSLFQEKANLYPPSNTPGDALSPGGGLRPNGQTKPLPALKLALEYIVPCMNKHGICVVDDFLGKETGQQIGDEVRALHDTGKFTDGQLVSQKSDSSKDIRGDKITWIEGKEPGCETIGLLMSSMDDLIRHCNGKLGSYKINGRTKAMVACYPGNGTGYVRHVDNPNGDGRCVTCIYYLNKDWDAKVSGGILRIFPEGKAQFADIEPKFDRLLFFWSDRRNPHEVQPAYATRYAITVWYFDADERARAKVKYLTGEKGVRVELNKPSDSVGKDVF
Briefly: HIF-PH2 (PHD2) assay (fluorescence polarization method). Type of experiment: biochemical. The note with it: 200 nM HIF PH2 enzyme, 50 nM peptide substrate, 30° C. one hour; read-out: IC50 (HIF PH2 inhibition activity). On the procedure: HIF-PH2 (EGLN1) was expressed from E. coli cells, and purified using two process: an Ni-affinity chromatography column and a size-exclusion chromatography column.
To evaluate activities of an HIF PH2 inhibitor, HIF PH2 enzyme that was first overexpressed by genetic recombination and then purified was used to perform an enzyme reaction. […] At this time, 2 mM ascorbic acid and 5 mM ketoglutarate with 100 μM FeCl2 or without FeCl2, were used together with crude enzyme. A concentration of HIF PH2 inhibitor to be tested was treated and reacted at 30° C. for one hour. After the reaction, the resulting reaction product was boiled at 95° C. for one minute to suppress the enzyme reaction.
To determine whether prolyl hydroxylation occurs in the substrate as the secondary reaction, 500 nM GST-VBC (GST-VHL-Elongin B-Elongin C) protein was added to a reaction buffer (50 mM Tris-Cl (pH8.0), 120 mM NaCl, 0.5% Nonidet P40), and a GST-VBC binding reaction was carried out at room temperature for 30 minutes.
A fluorescence polarization value of a sample that is not treated with the HIF PH2 inhibitor was used as 100% control, and the activities of the HIF PH2 inhibitor were measured as percentage of the remaining HIF PH2 enzyme activity in samples treated with a concentration of the HIF PH2 inhibitor to be tested.
In general terms: Fluorescence polarisation rises when a labelled molecule tumbles more slowly, as on binding a larger partner.

The subject of a further experiment is EPO. Briefly: Human EPO immunoassay (ELISA of Hep3B culture media). The class given is cell-based. The conditions noted are these: Hep3B cells, compound at 100 μM, 24-hour incubation; for EPO (mIU/ml): culture media ELISA; for fold induction at 100 µM: Homo sapiens, read-out: Fold Induction over control (EPO Induction). How it is done:
Human cells derived from hepatocarcinoma (Hep3B) tissue (see, e.g., American Type Culture Collection, Manassas Va.) were grown at 37° C., 20% O2, 5% CO2 in DMEM (GIBCO)+10% FBS, 4.5 g/L D-Glucose; L-Glutamate and 110 mg/L sodium pyruvate. Ninety-six well plates were seeded with 4×10^4 HEP3B cells/well. The media was removed and replaced with DMEM+10% FBS. Compounds were added to wells at concentrations between 1 μM-100 μM for a 24-hour incubation. Cell culture media was harvested and EPO concentration was determined using a Human Erythropoietin Quantikine IVD ELISA Kit (R&D Systems®, Minneapolis, Minn.) following the manufacturer's instructions for the benchtop assay.
(An ELISA detects its analyte on a solid surface through an enzyme-linked reagent.)

Where [1] appears, read: read-out: VEGF 1 fold induction over control.
The mark [2] stands for this setting: read-out: VEGF 2 fold induction over control.

Read-outs that look alike come from different tables or passages of the source.

For orientation: IC50 means the concentration needed to halve the response being measured.

For the compound `O=C(NCc1ccccn1)c1nc(Br)c2c(sc3ccccc32)c1O` [1-Bromo-4-hydroxy-benzo[4,5]thieno[3,2-c]pyridine-3-carboxylic acid (pyridin-2-ylmethyl)-amide], the fold induction at 100 µM is < 2 in the experiment on EPO gene and 2.1 to 4 with VEGF gene (setting [1]). For the same compound, at HIF-PH2 (EGLN1), the IC50 is < 25 µM.
On the same counts, the results for `COc1ccc(Cn2nnnc2CNC(=O)c2nc(Br)c3c(sc4ccccc43)c2O)cc1` [1-Bromo-4-hydroxy-benzo[4,5]thieno[3,2-c]pyridine-3-carboxylic acid [1-(4-methoxy-benzyl)-1H-tetrazol-5-ylmethyl]-amide] are < 2, < 2 and 26 to 100 µM.
As to `COc1ccc(Cn2nnc(CNC(=O)c3nc(Br)c4c(sc5ccccc54)c3O)n2)cc1` [1-Bromo-4-hydroxy-benzo[4,5]thieno[3,2-c]pyridine-3-carboxylic acid [2-(4-methoxy-benzyl)-2H-tetrazol-5-ylmethyl]-amide], the fold induction at 100 µM with EPO gene was < 2; with VEGF gene (setting [1]), 2.1 to 4. In addition, the half-maximal inhibitory concentration (IC50) on HIF-PH2 (EGLN1) is < 25 µM.
In the case of `O=C(NCc1ccccc1)c1nc(Br)c2c(sc3ccccc32)c1O` [1-Bromo-4-hydroxy-benzo[4,5]thieno[3,2-c]pyridine-3-carboxylic acid benzylamide], the fold induction at 100 µM in the experiment on EPO gene and with VEGF gene (setting [1]) was < 2 each time. Besides, the half-maximal inhibitory concentration (IC50) at HIF-PH2 (EGLN1) was 26 to 100 µM.
Consider `Nc1ccc2sc3c(O)c(C(=O)NCC(=O)O)nc(Cl)c3c2c1` [3-(Carboxymethyl-carbamoyl)-1-chloro-4-hydroxy-benzo[4,5]thieno[3,2-c]pyridin-8-yl-ammonium], for which the fold induction at 100 µM in the experiment with EPO gene and in the experiment on VEGF gene (setting [1]) was 2.1 to 4 throughout. Also, the half-inhibitory concentration (IC50) at HIF-PH2 (EGLN1) is < 25 µM.
Take `C[C@H](NC(=O)c1nc(Br)c2c(sc3ccccc32)c1O)C(=O)O` [(S)-2-[(1-Bromo-4-hydroxy-benzo[4,5]thieno[3,2-c]pyridine-3-carbonyl)-amino]-propionic acid]: the fold induction at 100 µM in the experiment on EPO gene is 2.1 to 4; in the experiment with VEGF gene (setting [1]), > 4.1. The 50% inhibitory concentration (IC50) at HIF-PH2 (EGLN1) lay in the range of 26 to 100 µM.
Taken in the same sequence, the figures for `C[C@H](NC(=O)c1nc(Cl)c2c(sc3ccccc32)c1O)C(=O)O` [(S)-2-[(1-Chloro-4-hydroxy-benzo[4,5]thieno[3,2-c]pyridine-3-carbonyl)-amino]-propionic acid] were 2.1 to 4, > 4.1 and 26 to 100 µM.
On the same counts, the results for `O=C(O)CNC(=O)c1nc(Br)c2c(sc3ccccc32)c1O` [[(1-Bromo-4-hydroxy-benzo[4,5]thieno[3,2-c]pyridine-3-carbonyl)-amino]-acetic acid] are > 4.1, 4 and < 25 µM.
On the same counts, the results for `O=C(O)CNC(=O)c1nc(Cl)c2c(sc3ccc([N+](=O)[O-])cc32)c1O` [[(1-Chloro-4-hydroxy-8-nitro-benzo[4,5]thieno[3,2-c]pyridine-3-carbonyl)-amino]-acetic acid] are 2.1 to 4, > 4.1 and < 25 µM.
On to `O=C(O)CNC(=O)c1nc(Cl)c2c(sc3ccccc32)c1O` [[(1-Chloro-4-hydroxy-benzo[4,5]thieno[3,2-c]pyridine-3-carbonyl)-amino]-acetic acid], for which the fold induction at 100 µM is > 4.1 in the experiment with EPO gene, > 4.1 with VEGF gene (setting [1]), > 4.1 in the experiment with VEGF gene (setting [2]) and 21 to 50 in the experiment with EPO. For the same compound, the “EPO (mIU/ml)” value in the experiment with EPO is “J (J = 21-40 mIU/ml)”.
Take `O=C(O)CNC(=O)c1nc(Cl)c2c(sc3c(F)cccc32)c1O` [[(1-Chloro-6-fluoro-4-hydroxy-benzo[4,5]thieno[3,2-c]pyridine-3-carbonyl)-amino]-acetic acid]: the fold induction at 100 µM was 2.1 to 4 in the experiment with EPO gene, 2.1 to 4 with VEGF gene (setting [1]) and < 20 in the experiment with EPO. Further, at HIF-PH2 (EGLN1), the IC50 was < 25 µM. In addition, the “EPO (mIU/ml)” value in the experiment on EPO is given as “I (I = 0-20 mIU/ml)”.
`O=C(O)CNC(=O)c1nc(Cl)c2c(sc3cc(F)ccc32)c1O` [[(1-Chloro-7-fluoro-4-hydroxy-benzo[4,5]thieno[3,2-c]pyridine-3-carbonyl)-amino]-acetic acid]: the fold induction at 100 µM with EPO gene is > 4.1; in the experiment on VEGF gene (setting [1]), > 4.1; in the experiment on EPO, 51 to 70. Besides, on HIF-PH2 (EGLN1), the IC50 was < 25 µM. In the experiment on EPO, the “EPO (mIU/ml)” value is listed as “K (K = 41-60 mIU/ml)”.
In the case of `CN(C)c1ccc2sc3c(O)c(C(=O)NCC(=O)O)nc(Cl)c3c2c1` [[(1-Chloro-8-dimethylamino-4-hydroxy-benzo[4,5]thieno[3,2-c]pyridine-3-carbonyl)-amino]-acetic acid], the fold induction at 100 µM in the experiment with EPO gene and in the experiment with VEGF gene (setting [1]) was > 4.1 each time. In addition, the IC50 at HIF-PH2 (EGLN1) is < 25 µM.
Consider `O=C(O)CNC(=O)c1nc(Cl)c2c(sc3ccc(F)cc32)c1O` [[(1-Chloro-8-fluoro-4-hydroxy-benzo[4,5]thieno[3,2-c]pyridine-3-carbonyl)-amino]-acetic acid], for which the fold induction at 100 µM with EPO gene was > 4.1; in the experiment with VEGF gene (setting [1]) it was 2.1 to 4; with EPO, 21 to 50. The IC50 at HIF-PH2 (EGLN1) was < 25 µM. Further, the “EPO (mIU/ml)” value with EPO is reported as “J (J = 21-40 mIU/ml)”.
`O=C(O)CNC(=O)c1nc(Cl)c2c(sc3cccc(F)c32)c1O` [[(1-Chloro-9-fluoro-4-hydroxy-benzo[4,5]thieno[3,2-c]pyridine-3-carbonyl)-amino]-acetic acid]: in the experiment with VEGF gene (setting [2]), the fold induction at 100 µM lay within 2.1 to 4. Moreover, on HIF-PH2 (EGLN1), the concentration for half-maximal inhibition (IC50) was < 25 µM. In the experiment on EPO, the “EPO (mIU/ml)” value is recorded as “K (K = 41-60 mIU/ml)” and the fold induction at 100 µM is > 71.
For `N#Cc1nc(C(=O)NCC(=O)O)c(O)c2sc3ccccc3c12` [[(1-Cyano-4-hydroxy-benzo[4,5]thieno[3,2-c]pyridine-3-carbonyl)-amino]-acetic acid], the fold induction at 100 µM with EPO gene is < 2; with VEGF gene (setting [1]) it was 2.1 to 4.
In the case of `O=C(O)CNC(=O)c1ncc2c(cnn2-c2ccccc2)c1O` [[(4-Hydroxy-1-phenyl-1H-pyrazolo[3,4-c]pyridine-5-carbonyl)-amino]-acetic acid], the figures for the fold induction at 100 µM with EPO gene and in the experiment on VEGF gene (setting [1]) were > 4.1 and 2.1 to 4, respectively. Besides, the IC50 on HIF-PH2 (EGLN1) is < 25 µM.
Taken in the same sequence, the figures for `O=C(O)CNC(=O)c1nc(Cl)c2c(cnn2-c2ccccc2)c1O` [[(7-Chloro-4-hydroxy-1-phenyl-1H-pyrazolo[3,4-c]pyridine-5-carbonyl)-amino]-acetic acid] were > 4.1, 2.1 to 4 and < 25 µM.
Take `CC(=O)Nc1ccc2sc3c(O)c(C(=O)NCC(=O)O)nc(Cl)c3c2c1` [[(8-Acetylamino-1-chloro-4-hydroxy-benzo[4,5]thieno[3,2-c]pyridine-3-carbonyl)-amino]-acetic acid]: in the experiment with VEGF gene (setting [2]), the fold induction at 100 µM is < 2. At HIF-PH2 (EGLN1), the concentration for half-maximal inhibition (IC50) was < 25 µM.
Take `O=C(O)CNC(=O)c1nc(Cl)c2c(sc3ccc(NS(=O)(=O)c4ccccc4)cc32)c1O` [[(8-Benzenesulfonylamino-1-chloro-4-hydroxy-benzo[4,5]thieno[3,2-c]pyridine-3-carbonyl)-amino]-acetic acid]: the concentration for half-maximal inhibition (IC50) on HIF-PH2 (EGLN1) is < 25 µM. In the experiment on EPO, the “EPO (mIU/ml)” value is reported as “I (I = 0-20 mIU/ml)” and the fold induction at 100 µM is < 20.

Values taken from patent US20110028507A1, “PYRIDINE DERIVATIVES AND METHODS OF USE THEREOF” (CRYSTALGENOMICS, INC., priority 2007, published 2011).
